Where two headings read alike, the source gives them in different places.
Experiments:
serotonin transporter = target: T1, serotonin transporter (Rattus norvegicus, UniProt P31652); test: 5-HT transporter affinity: displacement of 3H-paroxetine from male rat cortical membranes; format: binding; conditions: displacement of 3H-paroxetine; male rat cortical membranes; read-out: 5-HT Transporter Affinity Ki
T1 construct: displace ^3H-paroxetine from male rat cortical membranes; from tissue; host or cells: male rat cortical membranes
T1 sequence (P31652 whole entry): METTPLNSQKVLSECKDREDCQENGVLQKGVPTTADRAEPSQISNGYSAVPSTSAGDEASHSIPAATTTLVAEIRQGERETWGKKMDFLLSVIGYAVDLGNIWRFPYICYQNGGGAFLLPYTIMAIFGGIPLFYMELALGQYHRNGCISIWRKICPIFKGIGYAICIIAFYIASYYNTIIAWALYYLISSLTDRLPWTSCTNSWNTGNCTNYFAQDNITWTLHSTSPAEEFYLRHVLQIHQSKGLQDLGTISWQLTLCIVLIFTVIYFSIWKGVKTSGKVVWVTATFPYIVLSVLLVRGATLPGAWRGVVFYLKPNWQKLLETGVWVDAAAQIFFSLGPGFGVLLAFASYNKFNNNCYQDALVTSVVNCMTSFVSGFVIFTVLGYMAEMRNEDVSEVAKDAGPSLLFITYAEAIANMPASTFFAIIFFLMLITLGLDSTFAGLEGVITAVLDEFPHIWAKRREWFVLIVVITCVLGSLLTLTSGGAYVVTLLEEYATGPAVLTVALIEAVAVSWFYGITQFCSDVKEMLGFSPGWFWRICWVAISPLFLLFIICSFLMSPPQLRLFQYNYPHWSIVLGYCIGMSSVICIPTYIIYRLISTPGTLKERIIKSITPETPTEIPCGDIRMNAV

[1] = target: T2, cloned human 5-HT1A receptors (Homo sapiens, UniProt P08908); test: 35S-GTPγS binding assay, 5-HT1A function; format: biochemical; conditions: for IC50: antagonist potency, reversal of 8-OH-DPAT, read-out: 5-HT1A Function GTPγS IC50; for EC50: agonist potency
T2 construct: expressed in transfected cells
T2 sequence (P08908 1-422): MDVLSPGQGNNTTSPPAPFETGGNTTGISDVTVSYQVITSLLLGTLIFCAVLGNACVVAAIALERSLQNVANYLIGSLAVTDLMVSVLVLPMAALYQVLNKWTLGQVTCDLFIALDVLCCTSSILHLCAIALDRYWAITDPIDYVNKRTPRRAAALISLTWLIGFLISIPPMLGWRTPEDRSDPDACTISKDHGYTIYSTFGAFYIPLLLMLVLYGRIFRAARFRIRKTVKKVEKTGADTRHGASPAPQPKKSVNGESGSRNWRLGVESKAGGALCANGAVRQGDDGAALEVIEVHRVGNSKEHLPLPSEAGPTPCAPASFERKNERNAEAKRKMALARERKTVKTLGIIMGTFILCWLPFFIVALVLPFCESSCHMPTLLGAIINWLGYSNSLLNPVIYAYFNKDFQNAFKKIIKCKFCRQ

5-HT1A receptor [2] = target: T3, 5-HT1A receptor (Homo sapiens, UniProt P08908); test: cAMP accumulation assay, 5-HT1A function; format: cell-based; conditions: for IC50: cells marked IC50 (antagonist), read-out: 5-HT1A Function cAMP IC50; for 5-HT1A Function cAMP (Emax) / Emax: in brackets after EC50 or IC50; for EC50: cells marked EC50 (agonist); for Emax: read-out: 5-HT1A Function cAMP (Emax)
T3 sequence (P08908 1-422): T2 sequence (P08908 1-422)

5-HT1A receptor [3] = target: T3, 5-HT1A receptor; test: 5-HT1A receptor affinity: displacement of [3H] 8-OH-DPAT; format: binding; design: expressed in transfected cells; conditions: displacement of [3H] 8-OH-DPAT; CHO cells stably transfected with human 5-HT1A receptors; read-out: 5-HT1A Receptor Affinity Ki
[4] = maximum inhibitory effect, in brackets after IC50
[5] = maximum inhibitory effect, in brackets after IC50, read-out: 5-HT1A Function GTPγS (Imax)
[6] = maximum stimulatory effect, in brackets after EC50, read-out: 5-HT1A Function GTPγS (Emax)

Row | Compound | Ki (serotonin transporter) [nM] | IC50 [1] [nM] | 5-HT1A Function GTPγS (Imax) [1, 4] [%] | IC50 (5-HT1A receptor [2]) [nM] | 5-HT1A Function cAMP (Emax) (5-HT1A receptor [2]) [%] | Ki (5-HT1A receptor [3]) [nM] | Emax [1, 5] [%] | EC50 [1] [nM] | Emax [1, 6] [%] | EC50 (5-HT1A receptor [2]) [nM] | Emax (5-HT1A receptor [2]) [%]
1 | NC(=O)c1ccc(F)c2c1C[C@@H](N(CC1CC1)CC1CCc3[nH]c4ccc(F)cc4c3C1)CO2 (single isomer, unassigned; (+)) [Compound 178b] | 116 | 611 | 99 | 224 | 0 | 9.48 |  |  |  |  | 
2 | CCCN(CCCc1c[nH]c2ccc(F)cc12)C1CCc2c(F)ccc(OC)c2C1 (single isomer, unassigned; (-)) [Compound 51b, (−)-5-fluoro-N-[3-(5-fluoro-1H-indol-3-yl)propyl]-8-methoxy-N-propyl-1,2,3,4-tetrahydro-2-naphthalenamine] | 1.12 | 48 |  | 50 | 0 | 14.2 | 46 |  |  |  | 
3 | COC(=O)c1ccc(F)c2c1C[C@H](NCCCCc1c[nH]c3ccc(F)cc13)CO2 [Compound 57a, Methyl (3S)-8-fluoro-3-{[4-(5-fluoro-1H-indol-3-yl)butyl]amino}chromane-5-carboxylate] | 4.21 |  |  |  |  | 113 |  | 1750 | 96 | 337 | 81
4 | CNC(=O)c1ccc(F)c2c1C[C@@H](N(CCCCc1c[nH]c3ccc(F)cc13)C1CCC1)CO2 [Compound 145b, (3R)-3-{cyclobutyl[4-(5-fluoro-1H-indol-3-yl)butyl]amino}-8-fluoro-N-methylchromane-5-carboxamide] | 8.63 | 1270 |  | 848 |  | 6.29 | 100 |  |  |  | 0
5 | CCCN(C(C)CCc1c[nH]c2ccc(F)cc12)C1COc2c(F)ccc(C(N)=O)c2C1 (single isomer, unassigned) [Compound 12a, 8-fluoro-3-[[3-(5-fluoro-1H-indol-3-yl)-1-methylpropyl](propyl)amino]-3,4-dihydro-2H-chromene-5-carboxamide] | 22 | 323 | 96 | 47.5 | 0 | 5.19 |  |  |  |  | 
6 | NC(=O)c1ccc(F)c2c1C[C@H](N(CCCCc1c[nH]c3ccc(F)cc13)C1CCC1)CO2 [Compound 83b, (3S)-3-{cyclobutyl[4-(5-fluoro-1H-indol-3-yl)butyl]amino}-8-fluorochromane-5-carboxamide] | 16.9 | 2500 |  | 5800 |  | 111 | 100 |  |  |  | 0
7 | CCN(CCCc1csc2ccccc12)C1COc2cccc(OC)c2C1 (centres unmarked) [Compound 18, N-[3-(1-benzothien-3-yl)propyl]-N-ethyl-5-methoxychroman-3-amine] | 127 |  |  |  |  | 3.72 |  | 232 | 100 | 11 | 93.5
8 | NC(=O)c1ccc(F)c2c1CC(N(CCCc1c[nH]c3c(Cl)cccc13)C1CCC1)CO2 (centres unmarked) [Compound 111, 3-[[3-(7-chloro-1H-indol-3-yl)propyl](cyclobutyl)amino]-8-fluorochromane-5-carboxamide] | 66 | 1600 |  | 1060 |  | 26 | 100 |  |  |  | 0
9 | NC(=O)c1ccc(F)c2c1C[C@@H](NCC1CCc3c([nH]c4ccc(F)cc34)C1)CO2 (single isomer, unassigned; (-)) [Compound 179b] | 85.5 | 6040 | 100 | 956 |  | 24.2 |  |  |  |  | 0
10 | NC(=O)c1ccc(F)c2c1C[C@@H](NCC1CCc3[nH]c4ccc(F)cc4c3C1)CO2 (single isomer, unassigned; (-)) [Compound 175a] | 20.9 | 429 | 100 | 1480 |  | 38 |  |  |  |  | 0
11 | COc1cccc2c(CCCN(C3CCC3)C3COc4c(F)ccc(C(N)=O)c4C3)c[nH]c12 (centres unmarked) [Compound 102, 3-{cyclobutyl[3-(7-methoxy-1H-indol-3-yl)propyl]amino}-8-fluorochromane-5-carboxamide] | 1110 | 557 |  | 270 |  | 3.22 | 100 |  |  |  | 0
12 | COc1cccc2c1CC(N(CCCc1c[nH]c3ccc(C#N)cc13)CC1CC1)CO2 (centres unmarked) [Compound 45, 3-{3-[(cyclopropylmethyl)(5-methoxy-3,4-dihydro-2H-chromen-3-yl)amino]propyl}-1H-indole-5-carbonitrile] | 5.25 |  |  |  |  | 2.16 |  | 56 | 72 | 77.3 | 89.5
13 | O=C(NCC1CC1)c1cccc2c1CC(N(CCCc1c[nH]c3c(F)cc(F)cc13)C1CCC1)CO2 (centres unmarked) [Compound 144, 3-{cyclobutyl[3-(5,7-difluoro-1H-indol-3-yl)propyl]amino}-N-(cyclopropylmethyl)chromane-5-carboxamide] | 5.5 |  |  |  |  | 169 |  | 7600 | 73 | 4990 | 100
14 | CCCN(CCc1c[nH]c2ccc(F)cc12)C1COc2c(F)ccc(C(N)=O)c2C1 (centres unmarked) [Compound 77, 8-fluoro-3-[[2-(5-fluoro-1H-indol-3-yl)ethyl](propyl)amino]chromane-5-carboxamide] | 60.5 | 2570 |  | 68.3 |  | 18 | 100 |  |  |  | 0
15 | CCCN(CCCc1c[nH]c2ccc(F)cc12)C1COc2c(F)ccc(C(N)=O)c2C1 (single isomer, unassigned; (-)) [Compound 2a, (−)-8-fluoro-3-[[3-(5-fluoro-1H-indol-3-yl)propyl](propyl)amino]-3,4-dihydro-2H-chromene-5-carboxamide] | 8.5 | 405 |  |  |  | 1.48 | 77.4 |  |  | 18.5 | 77.5
16 | CC(C)NC(=O)c1ccc(F)c2c1CC(N(CCCc1c[nH]c3ccc(F)cc13)C1CCC1)CO2 (centres unmarked) [Compound 63, 3-{cyclobutyl[3-(5-fluoro-1H-indol-3-yl)propyl]amino}-8-fluoro-N-isopropylchromane-5-carboxamide] | 3.56 | 2170 |  | 449 |  | 46.1 | 76 |  |  |  | 0
17 | COc1cccc2c1CC(N(CCCc1c[nH]c3ccc(F)cc13)C1CCC1)CO2 (centres unmarked) [Compound 34, N-cyclobutyl-N-[3-(5-fluoro-1H-indol-3-yl)propyl]-5-methoxychroman-3-amine] | 13 | 2130 |  |  |  | 15.6 | 76 |  |  | 61.9 | 37
18 | CCCCN(CCCc1coc2c(OC)cccc12)C1COc2c(F)ccc(C(N)=O)c2C1 (centres unmarked) [Compound 166, 3-{butyl[3-(7-methoxy-1-benzofuran-3-yl)propyl]amino}-8-fluorochromane-5-carboxamide] | 498 |  |  | 301 |  | 14.2 |  |  |  |  | 0
19 | CCCN(CCCCn1ccc2ccc(F)cc21)C1COc2c(F)ccc(C(N)=O)c2C1 (centres unmarked) [Compound 194, 8-Fluoro-3-[[4-(6-fluoro-1H-indol-1-yl)butyl](propyl)amino]chromane-5-carboxamide] | 70 |  |  |  |  | 10.7 |  |  |  | 74.1 | 81

From patent US20050032873A1, “3-Amino chroman and 2-amino tetralin derivatives” (Wyeth, priority 2003, published 2005)
